Data taken from patent publication US20250152750A1 (Cancer Research Technology Limited, priority 2022, published 2025).
Entries after “also recorded” stand apart in the source; their conditions may differ.

Experiments:
[1] = test system: uptake of cyanine dye nanoparticles in control and senescent cells; assay: Endocytosis analysis by confocal microscopy with endocytosis pathway inhibitors; assay type: cell-based; settings: inhibitor 1 h before nanoparticles, 12-16 h
Protocol: Cells were trypsinized and seeded in flat-bottom μ-clear 96-well plates (Greiner Bio-One, #655087) at a density of 3,500-5,000 control and 4,000-6,000 senescent cells/well. Once the cells were attached, culture medium was changed to DMEM without FBS and exposed to a number of different inhibitors for 1 h. […] The cells were washed 3x with PBS for 5 min. Specific organelle stain LysoTracker Green DND-26 (Cell Signaling Technology, FM8783) was used according to the manufacturers protocol. For nuclei staining, Hoechst at 0.1 μg/mL in PBS was added 10 min prior to analysis.

SK-MEL-103 xenografts = assay: Ex vivo IVIS fluorescence imaging of untreated and Palbociclib treated xenografts; assay type: in vivo, mice; settings: 200 μL of 1 mg/mL tail vein, 6 h, p=0.0438
Protocol: All mice were treated in strict accordance with the local ethical committee (University of Cambridge License Review Committee) and the UK Home Office guidelines. Tumour xenografts were established using SK-MEL-103. Cells were trypsinised, counted with a haemocytometer, and injected subcutaneously (10^6 cells in a volume of 100 μL per dorsolateral flank) in 8- to 10-week-old athymic nude female mice (Crl:NU(NCr)-Foxn1^nu) purchased from Charles River Laboratories. Tumour volume was measured every 2 days with a caliper and calculated as V=(a×b 2)/2 where a is the longer and b is the shorter of two perpendicular diameters. […]
An IVIS Spectrum Imaging System (Perkin Elmer Inc) was used for ex vivo fluorescence imaging. For ex vivo imaging, mice were sacrificed by cervical dislocation and organs and tumour xenografts were analysed immediately after harvesting. ICG was detected using an excitation wavelength of 710-740 nm and emission bandpass from 810-830 nm. […] Fluorescence imaging quantification was performed by Living Image 3.2 software (Perkin Elmer Inc). […] Fluorescence activity is measured in photons per second per square centimetre per steradian (p/s/cm^2/sr). […]
See Examples—part A. Fluorescence activity is measured as average Radiant Efficiency with the equation of [p/s/cm2/sr]/[μW/cm2].

[2] = test system: senescent cells (multiple models of senescence); assay: Flow cytometry accumulation in control and senescent cells; assay type: cell-based, human; settings: 12-16 hours exposure
Protocol: LSR Fortessa (BD-Becton Dickinson) was used for flow cytometry analysis. For cyanine dye nanoparticle and small molecule studies, 6 well plates were used and seeded 200,000 cells per well. […] After this, cells were trypsinised and re-suspended in PBS buffer with 2% FBS. At least 10,000 live events were collected for each condition. DAPI (Sigma) was added to exclude dead cells. The analysis of all flow cytometry data was performed using FlowJo v10 (Treestar, OR). Unstained control and senescent cells were used as reference for each independent experiment. For ICG the 640 nm laser was used with an emission window of 750-810 nm. For the cyanine dye nanoparticle, the 640 nm laser was used with an emission window of 708-753 nm.

SMILES	effect of inhibitor on uptake of cyanine dye nanoparticles [1]	further results
O=C(N/N=C/c1cc(O)c(O)cc1O)c1cc2ccccc2cc1O [dynago4a]	significantly inhibited	effect of inhibitor on uptake of cyanine dye nanoparticles ([1]; listed as dyngo4a): significant inhibition
CC1(C)C(/C=C/C=C/C=C/C=C2\N(CCCCS(=O)(=O)O)c3ccc4ccccc4c3C2(C)C)=[N+](CCCCS(=O)(=O)[O-])c2ccc3ccccc3c21 [ICG, indocyanine green]		ICG emission in untreated (control) vs Palbociclib treated tumours (SK-MEL-103 xenografts): accumulation in untreated tumours as opposed to senescent tumours; also recorded: significantly higher signal in the control tumours; accumulation in senescent cells compared to controls [2]: accumulation of ICG
CCN(CC)CCCC(C)Nc1ccnc2cc(Cl)ccc12 (centres unmarked) [chloroquine]	significantly enhances	effect of inhibitor on uptake of cyanine dye nanoparticles ([1]; listed as Chloroquine): more dramatic increase
CN1CCN(CCCN2c3ccccc3Sc3ccc(Cl)cc32)CC1 [prochloroperazine]	not inhibited	
O=C1NC(=NS(=O)(=O)c2cccc3ccccc23)S/C1=C\c1ccc(Br)cc1 [Pitstop 2]	significant inhibition; also recorded: significant inhibitor of endocytosis	
